For 80 compounds, RP-LC retention time results are on record in the METLIN SMRT retention time set (Domingo-Almenara et al. 2019).

SMILES strings stand for the structures.

A short description of the series: gradient 5% acetonitrile 3 min, to 50% in 2 min, to 85% in 15 min, held 3 min, 100 µL/min. The settings on record: column: Zorbax Extend-C18 2.1 x 50 mm; eluents: water / acetonitrile, 0.1% formic acid. In outline: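 Pure standards were analyzed in mixtures of ~100 molecules using HPLC coupled to a quadrupole time-of-flight mass spectrometer, in both positive and negative ionization mode. Separation used a Zorbax Extend-C18 column (2.1 × 50 mm, 1.8 μm) at 100 μL/min, with water and acetonitrile each containing 0.1% formic acid. Dead and dwell volumes were 40 μL and 900 μL, and data were collected over 3 months. Retention time was read from computationally picked adduct peaks, each inspected manually.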
`Cc1ccc(OCC(=O)Nc2nc(-c3ccccc3)cs2)c(Br)c1` displayed an RP-LC retention time of 1310 s.

`O=C(Cc1ccc(F)cc1)N1CCN(C(=O)c2nnn3c2COC(c2ccccc2)C3)CC1` (stereo not given) came in with an RP-LC retention time of 864 s. The figure for `CCc1cccc(C)c1NC(=O)Cn1c(=O)n(-c2ccc(F)cc2)c(=O)c2c1cc(C)n2C` is 850 s; for `COc1ncc(C(=O)NCc2ccc(F)c(Cl)c2)cn1` it is 756 s; for `Cc1cc(N2C=C(C#N)S(=O)(=O)c3ccc(F)cc32)ccc1Br` it is 979 s. The figure for `O=C(CNC(=O)c1ccc(F)c(Cl)c1)Nc1nc2ccccc2[nH]1` is 660 s; for `Cc1ccc(-c2ccc(N3CCCC(C(=O)NCC(C)C)C3)nn2)cc1C` (stereo not given) it is 737 s.

As to `COc1cc(NC(=O)Cn2cccc2-c2nnc(-c3ccccc3)o2)cc(OC)c1`, the RP-LC retention time worked out at 993 s. The figure for `COc1ccc(OC)c(S(=O)(=O)N2CCCC(C(=O)Nc3ccc(C(N)=O)cc3)C2)c1` (stereo not given) is 689 s. The figure for `Cc1csc(-c2cc(S(=O)(=O)Nc3ccc(Cl)cc3)c(C)s2)n1` is 1060 s. In turn, `COc1ccc(CNC(=O)C2CCCN(c3cc(=O)n(C)c(=O)n3C)C2)cc1` (stereo not given) gave an RP-LC retention time of 663 s. Compound `COc1ccc(S(=O)(=O)N2CCCC(C(=O)N3CCN(Cc4ccccc4)CC3)C2)cc1Cl` (stereo not given) had an RP-LC retention time of 707 s. The figure for `c1ccc(-c2ccc(CNCc3ccc4c(c3)OCO4)o2)cc1` is 698 s; for `Cc1cccc(-c2noc(C3CCCN3S(=O)(=O)c3ccc(C)c(C)c3)n2)c1` (stereo not given) it is 1210 s; for `CCCN1C(=O)COc2ccc(-c3noc(CNC(=O)c4ccccc4)n3)cc21` it is 870 s. As for `Cc1ccc(Cn2c(N3CCCC(C(=O)NCC(C)C)C3)nc3ccsc3c2=O)cc1` (stereo not given), the RP-LC retention time turned out to be 955 s. In turn, `CN1CCCCc2cc(C(=O)NCCN(C)C3CCCCC3)sc21` gave an RP-LC retention time of 687 s.

The compound `CC(=O)Nc1ccc(-c2nc(-c3ccc4c(c3)oc(=O)n4C)no2)cc1` showed an RP-LC retention time of 819 s. The figure for `CCN1C(=O)COc2ccc(-c3csc(NC(=O)c4ccc(Cl)cc4)n3)cc21` is 1090 s; for `CCN1c2ccccc2C(=O)NC12CCN(C(=O)c1cccc(F)c1)CC2` it is 742 s; for `O=C(Nc1ccc(CN2CCN(c3ccccn3)CC2)cc1)c1ccccc1C(F)(F)F` it is 564 s. The figure for `O=C(C1CCCN(c2nnc3ccc(C(F)(F)F)cn23)C1)N1CCCCC1` (stereo not given) is 670 s; for `c1ccc(-c2nc(C3CC3)no2)c(OC2CCNC2)c1` (stereo not given) it is 588 s. As for `CCc1nc(-c2csc(S(=O)(=O)N3CCC(C(=O)N4CCCCC4)CC3)c2)no1`, the RP-LC retention time was 903 s.

The compound `Cc1cc(=O)n(CC(=O)Nc2ccc(F)cc2Cl)c(N2CCOCC2)n1` registered an RP-LC retention time of 672 s.

As to `COc1ccc(OC)c(CNC(=O)CCC(=O)N2CCCn3nc(C)cc32)c1`, the RP-LC retention time was determined as 654 s. The figure for `Cn1cc(CN2CCCC(COc3ccccc3C(=O)N3CCCCC3)C2)c2ccccc21` (stereo not given) is 753 s. The figure for `COc1ccc2c(c1OC)C(=O)N1N=C(c3ccc(-c4ccccc4)cc3)CC21` (stereo not given) is 927 s. The figure for `Cc1ccc(-c2noc(-c3cccn(CC(=O)NC(C)C)c3=O)n2)cc1` is 764 s; for `O=S(=O)(NCc1cccs1)c1cc(-c2nnc(-c3ccccc3)o2)ccc1F` it is 1070 s. Turning to `CNCc1ccc(-c2cccc(C(F)(F)F)c2)o1`, the RP-LC retention time was determined as 673 s. Take `CC(=O)c1ccc(S(=O)(=O)N2CCCC(C)(C(=O)NCc3ccccc3C)C2)cc1` (stereo not given): the RP-LC retention time is 588 s. As for `O=C(c1cnccn1)N1CCCC1c1nc(-c2ccc(F)cc2F)no1` (stereo not given), the RP-LC retention time amounted to 782 s.

`CC(C)c1ccc(C(=O)Nc2cc(-c3ccccn3)no2)cc1` gave an RP-LC retention time of 960 s. `Cc1sc(-c2nc(C(C)C)cs2)cc1S(=O)(=O)NC1CCCC1`: the RP-LC retention time turned out to be 1240 s. The figure for `CCCNC(=O)C1CC(=O)N(CCc2c[nH]c3ccc(F)cc23)C1` (stereo not given) is 684 s; for `Cc1c(-c2ccnc(N3CCN(Cc4ccccc4)CC3)n2)cnc2nc(-c3ccccc3)nn12` it is 713 s. The figure for `O=C(Cc1ccc(F)cc1)NC(c1ccccc1)c1nnc(N2CCCC2)o1` (stereo not given) is 780 s; for `Fc1ccc(-c2nc(-c3ccc(-n4ccnc4)nc3)no2)cc1F` it is 871 s; for `Cc1ccc(-n2nc3c(N4CCCC(C(=O)NCc5ccc(Cl)cc5)C4)nnc(C)c3c2C)cc1` (stereo not given) it is 789 s. The figure for `Cc1ccc2c(c1)N(Cc1ccccc1C)N=C(C(=O)N1CCCCC1)S2(=O)=O` is 1040 s; for `COc1ccc(NC2CS(=O)(=O)CC2O)cc1` (stereo not given) it is 592 s. The compound `CCOc1ccccc1NC(=O)N1CCC2(CC1)N=C(c1cccc(F)c1)C(=O)N2` showed an RP-LC retention time of 902 s. The figure for `Cc1nc2ccn(Cc3ccco3)c(=O)c2cc1C(=O)NCCC(C)C` is 776 s; for `CCOc1ccc(NC(=O)CSc2ncc(S(=O)(=O)c3ccccc3)c(=O)[nH]2)cc1` it is 737 s; for `COc1ccc(N2CC(c3nnc(NC(=O)c4ccc(Br)cc4)o3)CC2=O)cc1` (stereo not given) it is 759 s. The figure for `COc1ccc(-n2c(N(C)C)nc3cc(C(=O)NC4CC4)sc32)cc1` is 653 s. The figure for `Cc1ccc(NC(=O)Cn2c(N3CCOCC3)nc(C)cc2=O)cc1` is 680 s; for `CC(C)c1noc(-c2cc(=O)n(CC(=O)NCc3ccccc3)c3ccccc23)n1` it is 940 s. With `COc1ccc(C)cc1NC(=O)Cn1nc(N2CCOCC2)c2ccccc2c1=O`, the RP-LC retention time came out at 856 s.

Take `Cn1cc(S(=O)(=O)N2CCC(C(=O)N3CCCCCC3)CC2)cc1C(=O)N1CCCCC1`: the RP-LC retention time amounted to 770 s.

Compound `CCOC(=O)C(CC)n1nc2nc(Nc3ccc(C)cc3)cc(C)n2c1=O` (stereo not given) had an RP-LC retention time of 1230 s. The figure for `CCc1ccccc1NC(=O)N1CCN(c2cc(C)nc(N3CCOCC3)n2)CC1` is 695 s; for `Cc1cccc(-c2noc(Cn3nc(-c4ccc(F)cc4)ccc3=O)n2)c1` it is 1060 s. The figure for `Cc1ccccc1OCC(=O)NCc1c(C)noc1C` is 790 s. The compound `CCCCC(CC)C(=O)Nc1nc(-c2ccc(F)cc2)cs1` (stereo not given) yielded an RP-LC retention time of 1190 s. As to `COCc1nncn1C1CCN(C(=O)c2cc(F)ccc2Cl)CC1`, the RP-LC retention time is 635 s.

Turning to `Cc1cc(-c2csc(S(=O)(=O)NCCCN3CCN(c4ccccc4F)CC3)c2)on1`, the RP-LC retention time amounted to 704 s.

Take `Cc1cccc(NC(=O)N2CCN(c3nc4ccccc4nc3C(F)(F)F)CC2)c1`: the RP-LC retention time came to 1120 s. On to `O=C(c1ccsc1)N1CCCC1Cc1noc(-c2cnccn2)n1` (stereo not given), for which the RP-LC retention time came out at 707 s.

`CC(C)Cc1ccc(S(=O)(=O)N2CCC(C(=O)NCc3csc(-c4ccccc4)n3)CC2)cc1` registered an RP-LC retention time of 1140 s. The compound `O=C(Nc1cc(F)cc(F)c1)NC1CCN(c2ccccc2)C1=O` (stereo not given) showed an RP-LC retention time of 851 s. The figure for `O=C(COc1ccc(F)cc1)NCC1(c2cccs2)CC1` is 882 s; for `Cc1ccc(-c2nnc(-c3nn(C)c4c3CN(S(=O)(=O)c3c(C)cc(C)cc3C)CC4)o2)cc1` it is 1160 s. The figure for `Cc1cccc(-c2nc(Cn3nnc(C(=O)NCc4cccc(Br)c4)c3C)c(C)o2)c1` is 1210 s; for `Cn1nc(-c2nc(C3CC3)no2)c2c1CCN(C(=O)Nc1ccc(C(F)(F)F)cc1)C2` it is 959 s; for `Cc1ccc(-c2cc(C(=O)NCCN(C)C)n(C)c2)cc1` it is 657 s.

Consider `COCCn1cc(C(=O)Nc2ccc(Cl)cc2)c2nn(-c3ccccc3)c(=O)c-2c1`, for which the RP-LC retention time was 1050 s. The figure for `CCOCCCNS(=O)(=O)c1cc(-c2cc(C)[nH]n2)sc1C` is 720 s. The figure for `Cc1ccc(C2Cn3nnc(C(=O)N4CCN(C(=O)c5ccoc5)CC4)c3CO2)cc1` (stereo not given) is 815 s; for `CCc1nnc(-c2nnc(N(CC)CC)c3ccccc23)o1` it is 859 s; for `COC(=O)C1=CN(c2ccccc2)c2ccccc2S1(=O)=O` it is 777 s.

In turn, `CSc1nc2ccc(NC(=O)c3cccs3)cc2s1` returned an RP-LC retention time of 837 s. The compound `O=C(Nc1ccc(F)c(Cl)c1)c1sc2ncccc2c1-n1cccc1` displayed an RP-LC retention time of 1170 s. The figure for `CCC(C)C(NC(=O)c1ccc(OC)cc1)C(=O)Nc1nc2ccccc2[nH]1` (stereo not given) is 700 s; for `CC(=O)Nc1ccc(-n2cnc(C(=O)N3CCC(C(N)=O)CC3)c2)nc1` it is 564 s.

`COCCN1C(=O)c2ccccc2C(C(=O)NCc2ccccn2)C1c1cccs1` (stereo not given): the RP-LC retention time was 642 s. The figure for `O=C(Cc1nc(-c2ccccc2)n[nH]1)NC1CCCCC1` is 714 s; for `O=c1c2cc(-c3cccs3)nn2cnn1Cc1nc(-c2ccccc2)no1` it is 1050 s; for `CNS(=O)(=O)c1cccc(-c2nnc(-c3ccc(C)cc3)o2)c1` it is 856 s.
